According to the supplement of paper PMC10307832:

How the values were obtained:
Assay in all cases: relative viability (nuclei count vs DMSO), 5 days (fraction); higher = more cells survive
[1] = compound: C1=CC2=C(C=C(C(=C2N=C1)O)N=NC3=CC4=C(C=C3)C=C(C=C4)S(=O)(=O)O)S(=O)(=O)O + CC1(C)CCC(c2ccc(Cl)cc2)=C(CN2CCN(c3ccc(C(=O)NS(=O)(=O)c4ccc(N[C@H](CCN5CCOCC5)CSc5ccccc5)c(S(=O)(=O)C(F)(F)F)c4)cc3)CC2)C1 [Navitoclax] (partner 0.5 µM)
Method in brief: (§1)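 Relative viability was taken as the ratio of nuclei in treated wells to nuclei in vehicle wells. Lung cancer cell lines in 1536-well plates received compounds by pin tool one day after seeding, either one drug alone or a fixed anchor-drug dose plus five library-drug doses (not always all listed) in √10 steps. Nuclei were counted on 4× images after 5 days of treatment, and values are medians of duplicate plates.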

[2] = compound: C1=CC2=C(C=C(C(=C2N=C1)O)N=NC3=CC4=C(C=C3)C=C(C=C4)S(=O)(=O)O)S(=O)(=O)O + CS(=O)(=O)CCNCc1ccc(-c2ccc3ncnc(Nc4ccc(OCc5cccc(F)c5)c(Cl)c4)c3c2)o1 [Lapatinib] (partner 2 µM)
Method in brief: as §1

[3] = compound: O=C(NC1CCNCC1)c1n[nH]cc1NC(=O)c1c(Cl)cccc1Cl [AT-7519] + CCNC(=O)c1noc(-c2cc(C(C)C)c(O)cc2O)c1-c1ccc(CN2CCOCC2)cc1 [Luminespib] (partner 0.01 µM)
Method in brief: as §1

[4] = compound: O=C(NC1CCNCC1)c1n[nH]cc1NC(=O)c1c(Cl)cccc1Cl [AT-7519] + Cc1nc(Nc2ncc(C(=O)Nc3c(C)cccc3Cl)s2)cc(N2CCN(CCO)CC2)n1 [Dasatinib] (partner 0.075 µM)
Method in brief: as §1

Cell Line | relative viability ([1]; first compound 0.08 µM) | relative viability ([1]; first compound 0.253 µM) | relative viability ([1]; first compound 0.8 µM) | relative viability ([1]; first compound 2.53 µM) | relative viability ([1]; first compound 8 µM) | relative viability ([2]; first compound 0.08 µM) | relative viability ([2]; first compound 0.253 µM) | relative viability ([2]; first compound 0.8 µM) | relative viability ([2]; first compound 2.53 µM) | relative viability ([2]; first compound 8 µM) | relative viability ([3]; first compound 0.01 µM) | relative viability ([3]; first compound 0.03162 µM) | relative viability ([3]; first compound 0.3162 µM) | relative viability ([3]; first compound 1 µM) | relative viability ([4]; first compound 0.01 µM) | relative viability ([4]; first compound 0.03162 µM) | relative viability ([4]; first compound 0.3162 µM) | relative viability ([4]; first compound 1 µM)
NCI-H1915 | 0.818 | 0.764 | 0.835 | 0.765 | 0.768 | 1.06 | 1.01 | 1 | 0.883 | 1.02 | 0.687 | 0.798 | 0.729 | 0.62 | 0.215 | 0.316 | 0.334 | 0.274
NCI-H1793 | 0.48 | 0.364 | – | 0.545 | 0.557 | 0.769 | 1 | – | 0.651 | 0.59 | 0.387 | 0.161 | 0.385 | 0.119 | 0.319 | 0.361 | 0.407 | 0.247
NCI-H2023 | 1.03 | 1.01 | 0.965 | 0.984 | 0.973 | 0.825 | 0.773 | 0.899 | 0.95 | 0.818 | 0.622 | 0.748 | 0.521 | 0.16 | 0.636 | 0.548 | 0.485 | 0.231
COR-L 105 | 0.905 | 0.7 | 0.779 | 0.75 | 0.843 | 0.401 | 0.394 | 0.378 | 0.377 | 0.358 | 0.776 | 0.942 | 0.68 | 0.521 | 0.366 | 0.334 | 0.259 | 0.23
RERF-LC-KJ | 1.12 | 1.01 | 0.963 | 1.05 | 0.877 | 0.873 | 0.851 | 0.854 | 0.835 | 0.788 | 1.18 | 1.21 | 0.856 | 0.311 | 0.903 | 0.847 | 0.611 | 0.195
LXF-289 | 1 | 0.928 | 0.894 | 0.998 | 0.919 | 0.934 | 0.889 | 0.897 | 0.955 | 0.903 | 0.557 | 0.724 | 0.697 | 0.5 | 0.219 | 0.232 | 0.222 | 0.235
PC-14 | 1.02 | 0.973 | 0.982 | 1.05 | 1.01 | 0.369 | 0.333 | 0.322 | 0.357 | 0.329 | 0.196 | 0.151 | 0.151 | 0.111 | 0.241 | 0.239 | 0.163 | 0.0573
NCI-H1666 | 0.87 | 0.91 | 0.962 | 1.14 | 0.842 | 0.768 | 0.606 | 0.473 | 0.718 | 0.618 | 1.06 | 0.943 | 0.988 | 0.585 | 0.744 | 0.75 | 0.75 | 0.593
NCI-H2085 | 1.2 | 1.14 | 0.98 | 1.12 | 1.18 | 0.915 | 0.783 | 0.749 | 0.818 | 0.842 | 0.528 | 0.405 | 0.489 | 0.515 | 0.219 | 0.242 | 0.256 | 0.218
